From US8637310B2, “Use of a rock inhibitor to sustain primary human keratinocytes in a proliferative state” (The United States of America, as represented by the …, priority 2008, dated 2014)

How the values were obtained:
HPV16 = HPV16 genome copy number in W12 cells; type: cell-based, human papillomavirus; conditions: 10 μM Y-27632, FIG. 8
Protocol: The 9E and W12 (20863 clone) cell lines were cultured in F-media on irradiated J2 feeder cells. For the Y-27632 experiments they were cultured in F-medium with or without 10 μM Y-27632 and continually passed for the times indicated.
(§1) Cloned viral genomes were cleaved with restriction enzymes to separate viral and vector sequences. The genomes were religated at a concentration of 5 μg/ml to favor intramolecular circularization. Prior to electroporation, J2 feeder cells were removed from the keratinocytes by versene treatment and the HFKs were collected by trypsinization. HFKs (1×10^6) were electroporated with 2 μg of re-circularized viral genomic DNA using the Amaxa Nucleofector II electroporator and the Human Keratinocyte Nucleofector Kit. The Amaxa program optimized for cell survival was used according to the manufacturer's specifications. Cells were removed from the cuvettes immediately following electroporation, and seeded onto 10 cm plates containing irradiated feeder cells and F-medium, in the presence or absence of 10 μM Y-27632, as indicated. At various times post-transfection, low molecular weight DNA was isolated by a modified Hirt extraction procedure (Ustav et al., EMBO J. 10:449-457, 1991). For Southern blot analysis, the isolated DNA was linearized with EcoRI or BamHI, depending on cloning site for each viral genome, and DpnI, to digest any unreplicated input DNA. […]

hTERT mRNA = assay: Real time QRT-PCR of hTERT mRNA; type: cell-based, human
Protocol: Total cellular RNA was isolated with TRIZol™ reagent (Invitrogen, Carlsbad, Calif.) and treated with DNA-free kit (Ambion, Austin, Tex.). First-strand cDNA was synthesized from 8 μg of total cellular RNA using the Superscript III First-Strand Synthesis System (Invitrogen, Carlsbad, Calif.). RNase H-treated cDNA from 20 ng RNA was amplified by quantitative real time PCR using the Taqman Gene Expression Assay for hTERT (Assay ID: Hs00972646_m1, Applied Biosystems) spanning exons 14 and 15 and human RPLP0 (large ribosomal protein) endogenous control, VIC/MGB Probe, primer limited (Applied Biosystems). All samples were run in triplicate using the ABI 7900HT system and the amount of product was calculated with reference to standard curves generated by 4-fold serial dilutions of a mixed set of cDNAs with high telomerase expression. Values were adjusted relative to the level of RPO transcripts.

HPV18 = assay: HPV DNA replication assay (Southern blot) in transfected primary keratinocytes, HPV18; type: cell-based, human papillomavirus
Protocol: Cloned viral genomes were cleaved with restriction enzymes to separate viral and vector sequences. The genomes were religated at a concentration of 5 μg/ml to favor intramolecular circularization. Prior to electroporation, J2 feeder cells were removed from the keratinocytes by versene treatment and the HFKs were collected by trypsinization. HFKs (1×10^6) were electroporated with 2 μg of re-circularized viral genomic DNA using the Amaxa Nucleofector II electroporator and the Human Keratinocyte Nucleofector Kit. The Amaxa program optimized for cell survival was used according to the manufacturer's specifications. Cells were removed from the cuvettes immediately following electroporation, and seeded onto 10 cm plates containing irradiated feeder cells and F-medium, in the presence or absence of 10 μM Y-27632, as indicated. At various times post-transfection, low molecular weight DNA was isolated by a modified Hirt extraction procedure (Ustav et al., EMBO J. 10:449-457, 1991). For Southern blot analysis, the isolated DNA was linearized with EcoRI or BamHI, depending on cloning site for each viral genome, and DpnI, to digest any unreplicated input DNA. DNA fragments were separated by agarose gel electrophoresis followed by Southern blot hybridization. A ^32P-labeled probe was synthesized from the isolated viral genomic DNA (purified from the vector sequence) by the random prime method and used in Southern hybridizations.

W12 cells (20863 clone) = assay: Growth of CIN1-derived cell line W12; type: cell-based, human; conditions: 10 μM Y-27632; 44 days; FIG. 7
Protocol: The 9E and […] (20863 clone) cell lines were cultured in F-media on irradiated J2 feeder cells. For the Y-27632 experiments they were cultured in F-medium with or without 10 μM Y-27632 and continually passed for the times indicated.

HPV6 = assay: HPV DNA replication assay (Southern blot) in transfected primary keratinocytes, HPV6; type: cell-based, human papillomavirus; conditions: 10 μM Y-27632, FIG. 6
Protocol: as §1, with “DNA. DNA fragments were separated by agarose gel electrophoresis followed by Southern blot hybridization.” for “DNA.”

[1] = system: human embryonic stem cells; conditions: cited from earlier work
keratinocytes = assay: Organotypic raft culture (differentiation, stratification); type: cell-based, human
Protocol: Organotypic cultures were generated as described previously with modifications. (Banerjee et al., Methods Mol. Med. 119: 187-202, 2005). Briefly, 1×10^5 keratinocytes were seeded onto a rat tail type 1 collagen dermal equivalent containing 1−2×10^6 J2 3T3 feeder cells. The rafts were lifted onto stainless steel grids and were fed by diffusion from below with raft medium [3:1 (v/v) DMEM-F-12 (Ham), 10% FBS, 0.4 μg/ml hydrocortisone, 0.1 nM cholera toxin, and 5 μg/ml transferring]. Raft cultures were allowed to stratify and differentiate for 11-17 days. The collagen-epithelial rafts were fixed in formalin for 4 hours, paraffin embedded, sectioned and stained with hematoxylin and eosin (H&E) or by immunofluorescence as described in Pei et al. (Methods Mol. Med. 119: 49-59, 2005). Monoclonal antibody against anti-keratin 14 (K14) (Ab-1) was from Thermo Fisher Scientific, Fremont, Calif. Goat polyclonal antiserum against Filaggrin (N-20) and rabbit polyclonal antiserum against involucrin (H-120) were from Santa Cruz Biotechnology.

SMILES: CC(N)[C@H]1CC[C@H](C(=O)Nc2ccncc2)CC1 (single isomer, unassigned; (+)) [Y-27632, (+)-trans-N-(4-Pyridyl)-4-(1-aminoethyl)-cyclohexanecarboxamide]
- HPV16 copy number (HPV16): partially rescued the decline in copy number
- level of hTERT mRNA versus HPV18-immortalized keratinocytes (hTERT mRNA; by passage 34 in Y-27632): comparable to those in HPV18-immortalized keratinocytes
- level of hTERT mRNA (hTERT mRNA; foreskin keratinocytes with passage in Y-27632, FIG. 11A): increased with passage
- efficiency of HPV replication (HPV18; 10 μM Y-27632, two and five days post-electroporation, FIG. 5): greatly increased the efficiency of HPV replication up to five days
- HPV18 replication, long-term assay (HPV18; after day 10, FIG. 6): greater levels of replication in the absence of Y-27632
- HPV18 replication, long-term assay (HPV18; at early times, FIGS. 5 and 6): greater in the presence of Y-27632
- growth rate (W12 cells (20863 clone)): no differences in growth rate were observed
- HPV6 viral DNA levels, long-term assay (HPV6; after three passes): the levels of viral DNA declined
- efficiency of HPV6 replication, long-term assay (HPV6; up to three passes): greatly increased the efficiency of replication and robust levels of viral DNA were present after three passes
- survival rate of human embryonic stem cells following cryopreservation ([1]; Li et al. 2008): enhances the survival rate
- survival of embryonic stem cells ([1]; Watanabe et al. 2007): greatly increase the survival of embryonic stem cells
- differentiation and stratification (keratinocytes; 10 μM Y-27632 added to the organotypic raft culture medium): no differentiation or stratification were observed
- formation of stratified epithelium (keratinocytes; cells cultured in Y-27632 for 18 passages and late pass, raft media without Y-27632): could also produce a stratified epithelium in organotypic culture
- expression of keratin 14, involucrin and filaggrin (keratinocytes; raft tissue from Y-27632-treated cells, immunofluorescence): expressed these differentiation markers in the appropriate layer
